Test results: patent US11613527B2, “Enzyme inhibitors” (KalVista Pharmaceuticals Limited, priority 2019, dated 2023)
Converted amounts (≈) assume the structure as drawn.

Key:
[1] = molecular target: Human KLK1 (Homo sapiens (Human), UniProt P06870); assay: Determination of the IC50 for KLK1 (fluorogenic substrate H-DVal-Leu-Arg-AFC); assay type: biochemical
Summary of the method: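 Inhibition read as initial rate via optical absorbance change at 410 nm, giving IC50. Reactions combined human KLK1, the substrate H-DVal-Leu-Arg-AFC and varied compound concentrations at 25° C.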

[2] = Solubility after 24 hrs in Fasted State Simulated Intestinal Fluid (FaSSIF); assay type: physicochemical; settings: Fasted State Simulated Intestinal Fluid (FaSSIF), thermodynamic from solid, 24 hrs at 37° C., nominal concentration 1 mg/mL (as free base)
Description: Selected compounds were further screened for solubility in Fasted State Simulated Intestinal Fluid (FaSSIF).
Approximately 1 mg of test compound is accurately weighed into a 2 mL vial. Volumes of the FaSSIF solution (pre-heated to 37° C.) were added to a vial to give a nominal concentration of 1 mg/mL (as free base). The FaSSIF solution was prepared on the day of use. The samples were vortexed before being placed in a Titramax 1000 shaker for 24 hrs at 37° C. and approximately 500 rpm. The samples were transferred to eppendorf tubes and centrifuged at 15,000 g (r.c.f.) for 10 min at 37° C. and analysed for concentration of test compound by LCMS.

[3] = molecular target: Human FXIa (Homo sapiens (Human), UniProt P03951); assay: Determination of the % inhibition for FXIa (fluorogenic substrate Z-Gly-Pro-Arg-AFC; 40 μM or IC50); assay type: biochemical
Summary of the method: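 Inhibition measured from initial reaction rate, followed as absorbance change at 410 nm, with substrate Z-Gly-Pro-Arg-AFC at 25 °C. Compound tested at a single 40 μM dose for percent inhibition, or across several concentrations to derive IC50 against human FXIa.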

[4] = molecular target: Human plasma kallikrein (Homo sapiens (Human), UniProt P03952); assay: Determination of the IC50 for plasma kallikrein (fluorogenic substrate H-DPro-Phe-Arg-AFC); assay type: biochemical; settings: class symbols A-D, read-out: IC50 (human PKal)
Summary of the method: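 IC50 values come from initial rates, monitored as the change in absorbance at 410 nm, of residual enzyme activity. Test compound was present at various concentrations with the fluorogenic substrate H-DPro-Phe-Arg-AFC, and the reaction was run at 25° C.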

Chain of Human KLK1 (P06870 25-262): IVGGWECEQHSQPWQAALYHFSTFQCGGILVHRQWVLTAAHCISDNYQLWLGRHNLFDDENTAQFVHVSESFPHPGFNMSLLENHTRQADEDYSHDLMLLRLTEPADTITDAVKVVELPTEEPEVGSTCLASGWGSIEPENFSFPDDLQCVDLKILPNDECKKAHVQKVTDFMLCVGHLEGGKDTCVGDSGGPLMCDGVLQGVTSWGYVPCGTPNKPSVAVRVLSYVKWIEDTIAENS
Chain of Human FXIa (P03951 388-625): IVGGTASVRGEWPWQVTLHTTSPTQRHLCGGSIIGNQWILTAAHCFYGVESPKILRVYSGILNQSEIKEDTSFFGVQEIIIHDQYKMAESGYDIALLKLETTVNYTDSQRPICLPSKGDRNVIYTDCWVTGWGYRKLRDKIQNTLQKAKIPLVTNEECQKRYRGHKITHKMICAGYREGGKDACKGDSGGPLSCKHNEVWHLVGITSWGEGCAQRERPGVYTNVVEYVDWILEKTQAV
Chain of Human FXIa (P03951 19-387 partner): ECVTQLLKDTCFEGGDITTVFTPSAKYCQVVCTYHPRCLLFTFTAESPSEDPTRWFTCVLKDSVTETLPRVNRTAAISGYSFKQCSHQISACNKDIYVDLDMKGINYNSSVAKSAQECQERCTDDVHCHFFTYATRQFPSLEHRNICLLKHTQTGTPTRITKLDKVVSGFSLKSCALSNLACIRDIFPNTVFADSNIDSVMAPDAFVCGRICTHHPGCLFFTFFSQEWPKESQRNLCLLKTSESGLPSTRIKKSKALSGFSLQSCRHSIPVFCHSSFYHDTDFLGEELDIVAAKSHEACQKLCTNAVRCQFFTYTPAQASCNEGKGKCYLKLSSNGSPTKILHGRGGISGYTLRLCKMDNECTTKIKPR
Chain of Human plasma kallikrein (P03952 391-638): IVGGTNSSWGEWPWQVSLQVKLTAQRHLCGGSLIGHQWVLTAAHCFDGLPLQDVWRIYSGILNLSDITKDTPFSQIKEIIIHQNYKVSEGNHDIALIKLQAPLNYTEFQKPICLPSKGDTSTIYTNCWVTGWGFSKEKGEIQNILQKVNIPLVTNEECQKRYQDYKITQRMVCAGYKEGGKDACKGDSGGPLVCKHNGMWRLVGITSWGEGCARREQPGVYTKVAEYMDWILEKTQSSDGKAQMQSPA
Chain of Human plasma kallikrein (P03952 20-390 partner): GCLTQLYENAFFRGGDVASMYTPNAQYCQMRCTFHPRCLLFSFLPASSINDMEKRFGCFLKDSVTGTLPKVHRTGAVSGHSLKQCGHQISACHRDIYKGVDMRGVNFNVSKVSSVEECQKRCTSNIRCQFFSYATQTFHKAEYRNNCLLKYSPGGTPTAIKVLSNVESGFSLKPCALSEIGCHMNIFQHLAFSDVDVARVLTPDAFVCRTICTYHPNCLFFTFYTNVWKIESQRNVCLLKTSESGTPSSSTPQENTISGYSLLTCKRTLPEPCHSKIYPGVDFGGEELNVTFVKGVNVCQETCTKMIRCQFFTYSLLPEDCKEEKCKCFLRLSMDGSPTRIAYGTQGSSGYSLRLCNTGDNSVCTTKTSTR

Row | SMILES | IC50 [1] | solubility at 24 h [2] | IC50 [3] | IC50 [4]
1 | COCc1nn(Cc2ccc3c(c2)CCN(C(C)C)C3)cc1C(=O)NCc1c(-n2cnc(C(F)F)n2)ccc(OC)c1F [Example 44, N-({6-[3-(difluoromethyl)-1,2,4-triazol-1-yl]-2-fluoro-3-methoxyphenyl}methyl)-1-[(2-isopropyl-3,4-dihydro-1H-isoquinolin-6-yl)methyl]-3-(methoxymethyl)pyrazole-4-carboxamide] | > 40 µM | > 1 mg/mL | > 40 µM | < 0.01 µM
2 | COCc1nn(Cc2ccc3c(c2)CN(C(C)C)CC3)cc1C(=O)NCc1c(-n2cnc(C(F)(F)F)n2)ccc(OC)c1F [Example 22, N-({2-fluoro-3-methoxy-6-[3-(trifluoromethyl)-1,2,4-triazol-1-yl]phenyl}methyl)-1-[(2-isopropyl-3,4-dihydro-1H-isoquinolin-7-yl)methyl]-3-(methoxymethyl)pyrazole-4-carboxamide] | > 40 µM | 0.76 mg/mL (≈ 1230 µM) | > 40 µM | < 0.01 µM
3 | COCc1nn(Cc2ccc3c(c2)CCN(C(C)C)CC3)cc1C(=O)NCc1c(-n2cc(C)nn2)ccc(OC)c1F [Example 122, N-{[2-fluoro-3-methoxy-6-(4-methyl-1,2,3-triazol-1-yl)phenyl]methyl}-1-[(3-isopropyl-1,2,4,5-tetrahydro-3-benzazepin-7-yl)methyl]-3-(methoxymethyl)pyrazole-4-carboxamide] | > 40 µM | 0.73 mg/mL (≈ 1270 µM) | > 40 µM | < 0.01 µM
4 | COCc1nn(Cc2ccc3c(c2)CN(C)CC3)cc1C(=O)NCc1c(-n2cnc(C(F)F)n2)ccc(OC)c1Cl [Example 156, N-({2-chloro-6-[3-(difluoromethyl)-1,2,4-triazol-1-yl]-3-methoxyphenyl}methyl)-3-(methoxymethyl)-1-[(2-methyl-3,4-dihydro-1H-isoquinolin-7-yl)methyl]pyrazole-4-carboxamide] | > 40 µM | > 1 mg/mL | > 40 µM | < 0.01 µM
5 | CCN1CCc2ccc(Cn3cc(C(=O)NCc4c(-n5ccc(C#N)n5)ccc(OC)c4F)c(COC)n3)cc2C1 [Example 27, N-{[6-(3-cyanopyrazol-1-yl)-2-fluoro-3-methoxyphenyl]methyl}-1-[(2-ethyl-3,4-dihydro-1H-isoquinolin-7-yl)methyl]-3-(methoxymethyl)pyrazole-4-carboxamide] | > 40 µM | 0.96 mg/mL (≈ 1720 µM) | 33.9 µM | < 0.01 µM
6 | COc1ccc(-n2cc(C)nn2)c(CNC(=O)c2cn(Cc3cnc4c(c3)CCN(C)C4)nc2C(F)F)c1F [Example 137, 3-(difluoromethyl)-N-{[2-fluoro-3-methoxy-6-(4-methyl-1,2,3-triazol-1-yl)phenyl]methyl}-1-[(7-methyl-6,8-dihydro-5H-1,7-naphthyridin-3-yl)methyl]pyrazole-4-carboxamide] | > 40 µM | 0.81 mg/mL (≈ 1500 µM) | 21.9 µM | < 0.01 µM
7 | COCc1nn(Cc2cnc(N3CCCC3)nc2)cc1C(=O)NCc1c(-n2cnnn2)ccc(OC)c1F [RC4, N-{[2-fluoro-3-methoxy-6-(1,2,3,4-tetrazol-1-yl)phenyl]methyl}-3-(methoxymethyl)-1-{[2-(pyrrolidin-1-yl)pyrimidin-5-yl]methyl}pyrazole-4-carboxamide, reference compound] | > 40 µM | 0.17 mg/mL (≈ 325 µM) |  | < 0.01 µM
8 | COCc1nn(Cc2cnc3c(c2)CN(C(C)C)CC3)cc1C(=O)NCc1c(-n2cc(C)nn2)ccc(OC)c1F [Example 132, N-{[2-fluoro-3-methoxy-6-(4-methyl-1H-1,2,3-triazol-1-yl)phenyl]methyl}-3-(methoxymethyl)-1-{[6-(propan-2-yl)-5,6,7,8-tetrahydro-1,6-naphthyridin-3-yl]methyl}-1H-pyrazole-4-carboxamide] |  | 0.56 mg/mL (≈ 995 µM) |  | 0.01 to 0.03 µM
